Data from patent publication US20260374756A1, “HETEROCYCLIC COMPOUNDS AS INHIBITORS OF MONOACYLGLYCEROL LIPASE (MAGL)” (Hoffmann-La Roche Inc., priority 2022, published 2026).

Molecular target: T1, hMAGL (Homo sapiens, UniProt Q99685)
T1 sequence (Q99685 1-303): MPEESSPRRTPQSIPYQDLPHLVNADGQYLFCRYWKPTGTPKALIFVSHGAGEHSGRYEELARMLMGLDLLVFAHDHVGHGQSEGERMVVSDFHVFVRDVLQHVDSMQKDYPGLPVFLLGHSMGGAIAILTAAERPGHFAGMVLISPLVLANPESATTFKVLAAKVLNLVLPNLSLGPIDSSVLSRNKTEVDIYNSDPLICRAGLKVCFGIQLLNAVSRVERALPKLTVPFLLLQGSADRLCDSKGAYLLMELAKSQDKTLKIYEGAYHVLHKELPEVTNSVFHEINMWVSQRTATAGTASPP
Assay: 2-AG assay: MAGL inhibition, hydrolysis of 2-arachidonoylglycerol to arachidonic acid followed by mass spectrometry
Assay type: biochemical
Procedure, shortened: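 MAGL preincubated with compound 15 min at RT in 50 mM Tris, 1 mM EDTA, 0.01% Tween-20, 2.5% DMSO; reaction started with 8 μM 2-AG (final), […], 30 min at RT. Quenched with acetonitrile containing d8-arachidonic acid; arachidonic acid quantified by RapidFire SPE-triple quad MS as arachidonic acid/d8 ratio.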

IC50	SMILES
3.7 nM	Cc1cc(C(F)(F)F)n(CC2CC3(C2)CN(C(=O)N2CC4(CC(n5cnc(C(F)(F)F)n5)C4)C2)C3)n1 [Example 71, [6-[[3-methyl-5-(trifluoromethyl)pyrazol-1-yl]methyl]-2-azaspiro[3.3]heptan-2-yl]-[6-[3-(trifluoromethyl)-1,2,4-triazol-1-yl]-2-azaspiro[3.3]heptan-2-yl]methanone]
102 nM	Cc1nc(C)c(CN2CC3(C2)CN(C(=O)N2CC4(CC(n5cnc(C6CC6)n5)C4)C2)C3)o1 [Example 307, [6-(3-cyclopropyl-1,2,4-triazol-1-yl)-2-azaspiro[3.3]heptan-2-yl]-[6-[(2,4-dimethyloxazol-5-yl)methyl]-2,6-diazaspiro[3.3]heptan-2-yl]methanone]
20.5 nM	O=C(N1CC2(CCN(Cc3cc(C(F)(F)F)[nH]n3)CC2)C1)N1CC2(CC(n3cnc(C(F)(F)F)n3)C2)C1 [Example 28]
1.82 nM	O=C(N1CC2(CC(Cc3n[nH]c(C4CC4)n3)C2)C1)N1CC2(CC(n3cnc(C4CC4)n3)C2)C1 [Example 304, [6-(3-cyclopropyl-1,2,4-triazol-1-yl)-2-azaspiro[3.3]heptan-2-yl]-[6-[(5-cyclopropyl-1H-1,2,4-triazol-3-yl)methyl]-2-azaspiro[3.3]heptan-2-yl]methanone]
1380 nM	Cn1ncc(P(C)(C)=O)c1CN1CC2(C1)CN(C(=O)N1CC3(CC(n4cnc(C(F)(F)F)n4)C3)C1)C2 [Example 227, [6-[(4-dimethylphosphoryl-2-methyl-pyrazol-3-yl)methyl]-2,6-diazaspiro[3.3]heptan-2-yl]-[6-[3-(trifluoromethyl)-1,2,4-triazol-1-yl]-2-azaspiro[3.3]heptan-2-yl]methanone]
2.26 nM	O=C(N1CC2(CC(Cc3n[nH]cc3C(F)(F)F)C2)C1)N1CC2(CC(n3cnc(C(F)F)n3)C2)C1 [Example 344, [6-[3-(difluoromethyl)-1,2,4-triazol-1-yl]-2-azaspiro[3.3]heptan-2-yl]-[6-[[4-(trifluoromethyl)-1H-pyrazol-3-yl]methyl]-2-azaspiro[3.3]heptan-2-yl]methanone]
3.05 nM	Cc1cc(C(F)F)nn1CC1CC2(C1)CN(C(=O)N1CC3(CC(n4cnc(C5(O)CC5)n4)C3)C1)C2 [Example 96, [6-[[3-(difluoromethyl)-5-methyl-pyrazol-1-yl]methyl]-2-azaspiro[3.3]heptan-2-yl]-[6-[3-(1-hydroxycyclopropyl)-1,2,4-triazol-1-yl]-2-azaspiro[3.3]heptan-2-yl]methanone]
1.02 nM	Cc1cc(C(F)F)n(CC2CC3(C2)CN(C(=O)N2CC4(CC(n5cnc(C(F)(F)F)n5)C4)C2)C3)n1 [Example 91, [6-[[5-(difluoromethyl)-3-methyl-pyrazol-1-yl]methyl]-2-azaspiro[3.3]heptan-2-yl]-[6-[3-(trifluoromethyl)-1,2,4-triazol-1-yl]-2-azaspiro[3.3]heptan-2-yl]methanone]
71.4 nM	O=C(N1CC2(CCN(Cc3cc(C(F)(F)F)on3)CC2)C1)N1CC2(CC(n3cnc(C(F)(F)F)n3)C2)C1 [Example 79, [7-[[5-(trifluoromethyl)isoxazol-3-yl]methyl]-2,7-diazaspiro[3.5]nonan-2-yl]-[6-[3-(trifluoromethyl)-1,2,4-triazol-1-yl]-2-azaspiro[3.3]heptan-2-yl]methanone]
176 nM	O=C(N1CC2(CC(n3cnc(C(F)(F)F)n3)C2)C1)N1CC2(CN(Cc3nccn3CC(F)(F)F)C2)C1 [Example 233, [6-[[1-(2,2,2-trifluoroethyl)imidazol-2-yl]methyl]-2,6-diazaspiro[3.3]heptan-2-yl]-[6-[3-(trifluoromethyl)-1,2,4-triazol-1-yl]-2-azaspiro[3.3]heptan-2-yl]methanone]
907 nM	CCc1nc(C)c(CN2CC3(C2)CN(C(=O)N2CC4(CC(n5cnc(C6CC6)n5)C4)C2)C3)[nH]1 [Example 306, [6-(3-cyclopropyl-1,2,4-triazol-1-yl)-2-azaspiro[3.3]heptan-2-yl]-[6-[(2-ethyl-4-methyl-1H-imidazol-5-yl)methyl]-2,6-diazaspiro[3.3]heptan-2-yl]methanone]
15 nM	O=C(N1CC2(CC(n3cnc(C(F)(F)F)n3)C2)C1)N1CC2(CN(Cc3nc(C4(C(F)(F)F)CC4)no3)C2)C1 [Example 328, [6-[[3-[1-(trifluoromethyl)cyclopropyl]-1,2,4-oxadiazol-5-yl]methyl]-2,6-diazaspiro[3.3]heptan-2-yl]-[6-[3-(trifluoromethyl)-1,2,4-triazol-1-yl]-2-azaspiro[3.3]heptan-2-yl]methanone]
79.8 nM	O=C(N1CC2(CC(n3cnc(C4CC4)n3)C2)C1)N1CC2(CN(Cc3ncc(C(F)(F)F)[nH]3)C2)C1 [Example 232, [6-(3-cyclopropyl-1,2,4-triazol-1-yl)-2-azaspiro[3.3]heptan-2-yl]-[6-[[5-(trifluoromethyl)-1H-imidazol-2-yl]methyl]-2,6-diazaspiro[3.3]heptan-2-yl]methanone]
4.2 nM	O=C(N1CC2(CCN(Cc3cc(C(F)(F)F)[nH]n3)CC2)C1)N1CC2(CC(n3cnc(C4CC4)n3)C2)C1 [Example 29, [6-(3-cyclopropyl-1,2,4-triazol-1-yl)-2-azaspiro[3.3]heptan-2-yl]-[7-[[5-(trifluoromethyl)-1H-pyrazol-3-yl]methyl]-2,7-diazaspiro[3.5]nonan-2-yl]methanone]
0.12 nM	O=C(N1CC2(CC(Cc3cc(C(F)(F)F)n[nH]3)C2)C1)N1CC2(CC(c3cc(C4CC4)n[nH]3)C2)C1 [Example 297, [6-(3-cyclopropyl-1H-pyrazol-5-yl)-2-azaspiro[3.3]heptan-2-yl]-[6-[[3-(trifluoromethyl)-1H-pyrazol-5-yl]methyl]-2-azaspiro[3.3]heptan-2-yl]methanone]
0.2 nM	Cc1cc(C(F)F)nn1CC1CC2(C1)CN(C(=O)N1CC3(CC(n4cnc(C5CC5)n4)C3)C1)C2 [Example 95, [6-(3-cyclopropyl-1,2,4-triazol-1-yl)-2-azaspiro[3.3]heptan-2-yl]-[6-[[3-(difluoromethyl)-5-methyl-pyrazol-1-yl]methyl]-2-azaspiro[3.3]heptan-2-yl]methanone]
2.25 nM	O=C(N1CC2(CC(Cc3nc(C(F)(F)F)ns3)C2)C1)N1CC2(CC(n3cnc(C(F)(F)F)n3)C2)C1 [Example 15, [6-[[3-(trifluoromethyl)-1,2,4-thiadiazol-5-yl]methyl]-2-azaspiro[3.3]heptan-2-yl]-[6-[3-(trifluoromethyl)-1,2,4-triazol-1-yl]-2-azaspiro[3.3]heptan-2-yl]methanone]
351 nM	Cc1nc(C(F)(F)F)c(CN2CC3(C2)CN(C(=O)N2CC4(CC(n5cnc(C6(O)CC6)n5)C4)C2)C3)s1 [Example 87, [6-[3-(1-hydroxycyclopropyl)-1,2,4-triazol-1-yl]-2-azaspiro[3.3]heptan-2-yl]-[6-[[2-methyl-4-(trifluoromethyl)thiazol-5-yl]methyl]-2,6-diazaspiro[3.3]heptan-2-yl]methanone]
0.12 nM	O=C(N1CC2(CC(Cc3cc(C(F)(F)F)n[nH]3)C2)C1)N1CC2(CC(n3cnc(C4CC4)n3)C2)C1 [Example 300, [6-(3-cyclopropyl-1,2,4-triazol-1-yl)-2-azaspiro[3.3]heptan-2-yl]-[6-[[3-(trifluoromethyl)-1H-pyrazol-5-yl]methyl]-2-azaspiro[3.3]heptan-2-yl]methanone]
2.22 nM	O=C(N1CC2(CC(Cn3ncnc3C(F)(F)F)C2)C1)N1CC2(CC(n3cnc(C4CC4)n3)C2)C1 [Example 345, [6-(3-cyclopropyl-1,2,4-triazol-1-yl)-2-azaspiro[3.3]heptan-2-yl]-[6-[[5-(trifluoromethyl)-1,2,4-triazol-1-yl]methyl]-2-azaspiro[3.3]heptan-2-yl]methanone]
730 nM	O=C(N1CC2(CC(n3cnc(C(F)(F)F)n3)C2)C1)N1CC2(CN(Cc3nnn(CC(F)(F)F)n3)C2)C1 [Example 193, [6-[[2-(2,2,2-trifluoroethyl)tetrazol-5-yl]methyl]-2,6-diazaspiro[3.3]heptan-2-yl]-[6-[3-(trifluoromethyl)-1,2,4-triazol-1-yl]-2-azaspiro[3.3]heptan-2-yl]methanone]
3.8 nM	O=C(N1CC2(CC(n3cnc(C4CC4)n3)C2)C1)N1CC2(CN(Cc3cc(C(F)(F)F)sn3)C2)C1 [Example 156, [6-(3-cyclopropyl-1,2,4-triazol-1-yl)-2-azaspiro[3.3]heptan-2-yl]-[6-[[5-(trifluoromethyl)isothiazol-3-yl]methyl]-2,6-diazaspiro[3.3]heptan-2-yl]methanone]
165 nM	CS(=O)(=O)c1cnn(CC2CC3(C2)CN(C(=O)N2CC4(CC(n5cnc(C6(O)CC6)n5)C4)C2)C3)c1 [Example 313, [6-[3-(1-hydroxycyclopropyl)-1,2,4-triazol-1-yl]-2-azaspiro[3.3]heptan-2-yl]-[6-[(4-mesylpyrazol-1-yl)methyl]-2-azaspiro[3.3]heptan-2-yl]methanone]
3.59 nM	O=C(N1CC2(CCN(Cc3ncc(C(F)F)s3)CC2)C1)N1CC2(CC(c3cc(C4CC4)n[nH]3)C2)C1 [Example 30, [6-(3-cyclopropyl-1H-pyrazol-5-yl)-2-azaspiro[3.3]heptan-2-yl]-[7-[[5-(difluoromethyl)thiazol-2-yl]methyl]-2,7-diazaspiro[3.5]nonan-2-yl]methanone]
4.84 nM	O=C(N1CC2(CCN(Cc3nc(C(F)(F)F)cs3)CC2)C1)N1CC2(CC(c3cc(C4CC4)n[nH]3)C2)C1 [Example 174, [6-(3-cyclopropyl-1H-pyrazol-5-yl)-2-azaspiro[3.3]heptan-2-yl]-[7-[[4-(trifluoromethyl)thiazol-2-yl]methyl]-2,7-diazaspiro[3.5]nonan-2-yl]methanone]
